As usually defined, the IC50 is the point on the concentration scale where inhibition reaches its midpoint.

Bounds are passed on as bounds.

Our source for the IC50 values is patent US20260166039A1 (SCHRÖDINGER, INC., priority 2022, published 2026).

For assay [1], the system named is phosphorylation of Cdc2 Y15 (Wee1 substrate) in A427 cells. Briefly: Phosphorylated Cdc2 MSD Electrochemiluminescence Assay. Format: cell-based. Particulars: Homo sapiens, A-427, class symbols, read-out: A427 pCDC2 MSD IC50. Summed up: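 A427 cells (RPMI 1640, 10% FBS) treated 20 h after plating with 3-fold serial compound dilutions, in duplicate, 37 °C, 5% CO2; total incubation 6 h. Lysate Cdc2 pY15 read by MSD electrochemiluminescence sandwich immunoassay; % remaining signal normalised to DMSO (high) and reference Wee1 inhibitor (low) controls.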

Another assay concerns the target T1, Wee1 kinase domain (Homo sapiens, UniProt P30291).
T1 construct: Wee1 kinase domain was purchased from Carna (catalog #05-177); purchased Carna 05-177
The experiment in a line: Wee1 Kinase Biochemical Assay (ADP-Glo). To be noted: class symbols; 1 nM Wee1 enzyme, 15 uM ATP, 4 hours at 25° C. The procedure, abridged: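 Poly(Lys,Tyr 4:1) phosphorylation by the kinase domain is followed as ADP output (ADP-Glo) after 4 h at 25 °C, with ATP at 15 uM. Values are percent inhibition between vehicle and full-inhibition controls.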

T1 sequence (P30291 299-569 limits assumed): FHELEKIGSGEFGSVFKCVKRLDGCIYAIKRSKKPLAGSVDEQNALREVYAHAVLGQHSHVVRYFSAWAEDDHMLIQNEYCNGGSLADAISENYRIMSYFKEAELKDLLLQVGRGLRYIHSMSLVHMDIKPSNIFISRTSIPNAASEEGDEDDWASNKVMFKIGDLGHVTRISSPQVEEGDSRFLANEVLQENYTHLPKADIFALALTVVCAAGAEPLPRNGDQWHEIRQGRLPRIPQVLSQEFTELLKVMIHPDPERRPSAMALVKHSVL

As for `C[C@H]1CCC(=O)N1c1cccc(N2c3nc(Nc4ccc(N5C[C@@H]6C[C@H]5CN6C)cc4)ncc3[C@@]3(C)COC(C)(C)C[C@@H]23)n1` [Example 651, (S)-5-methyl-1-(6-((4bR,8aR)-4b,7,7-trimethyl-2-((4-((1S,4S)-5-methyl-2,5-diazabicyclo[2.2.1]heptan-2-yl)phenyl)amino)-4b,7,8,8a-tetrahydropyrano[3′,4′:4,5]pyrrolo[2,3-d]pyrimidin-9(5H)-yl)pyridin-2-yl)pyrrolidin-2-one], the IC50 in assay [1] is 100 to 1000 nM; against Wee1 kinase domain, under 10 nM.

As to `Cc1cc(Nc2ncc3c(n2)N(c2cccc(N4CCCC4=O)n2)[C@@H]2CC(C)(C)OC[C@]32C)ccc1N1C[C@@H]2C[C@H]1CN2C` [Example 652, 1-(6-((4bR,8aR)-4b,7,7-trimethyl-2-((3-methyl-4-((1S,4S)-5-methyl-2,5-diazabicyclo[2.2.1]heptan-2-yl)phenyl)amino)-4b,7,8,8a-tetrahydropyrano[3′,4′:4,5]pyrrolo[2,3-d]pyrimidin-9(5H)-yl)pyridin-2-yl)pyrrolidin-2-one], the IC50 in assay [1] was 100 to 1000 nM; against Wee1 kinase domain, under 10 nM.

In the case of `Cc1cc(Nc2ncc3c(n2)N(c2cccc(N4CCOC4=O)n2)[C@@H]2CC(C)(C)OC[C@]32C)ccc1N1C[C@@H]2C[C@H]1CN2C` [Example 654, 3-(6-((4bR,8aR)-4b,7,7-trimethyl-2-((3-methyl-4-((1S,4S)-5-methyl-2,5-diazabicyclo[2.2.1]heptan-2-yl)phenyl)amino)-4b,7,8,8a-tetrahydropyrano[3′,4′:4,5]pyrrolo[2,3-d]pyrimidin-9(5H)-yl)pyridin-2-yl)oxazolidin-2-one], the 50% inhibitory concentration (IC50) was 100 to 1000 nM in assay [1] and under 10 nM on Wee1 kinase domain.

Take `C[C@H]1CCC(=O)N1c1cccc(N2c3nc(Nc4ccc(N5C[C@H]6C[C@@H]5CN6C)cc4)ncc3[C@@]3(C)COC(C)(C)C[C@@H]23)n1` [Example 657, (S)-5-methyl-1-(6-((4bR,8aR)-4b,7,7-trimethyl-2-((4-((1R,4R)-5-methyl-2,5-diazabicyclo[2.2.1]heptan-2-yl)phenyl)amino)-4b,7,8,8a-tetrahydropyrano[3′,4′:4,5]pyrrolo[2,3-d]pyrimidin-9(5H)-yl)pyridin-2-yl)pyrrolidin-2-one]: the concentration for half-maximal inhibition (IC50) was 100 to 1000 nM in assay [1] and under 10 nM at Wee1 kinase domain.

For the compound `Cc1cc(Nc2ncc3c(n2)N(c2cccc(N4CCCC4=O)n2)[C@@H]2CC(C)(C)OC[C@]32C)ccc1N1C[C@H]2C[C@@H]1CN2C` [Example 658, 1-(6-((4bR,8aR)-4b,7,7-trimethyl-2-((3-methyl-4-((1R,4R)-5-methyl-2,5-diazabicyclo[2.2.1]heptan-2-yl)phenyl)amino)-4b,7,8,8a-tetrahydropyrano[3′,4′:4,5]pyrrolo[2,3-d]pyrimidin-9(5H)-yl)pyridin-2-yl)pyrrolidin-2-one], the 50% inhibitory concentration (IC50) in assay [1] was 100 to 1000 nM; against Wee1 kinase domain, under 10 nM.

For the compound `Cc1cc(Nc2ncc3c(n2)N(c2cccc(N4CCOC4=O)n2)[C@@H]2CC(C)(C)OC[C@]32C)ccc1N1C[C@H]2C[C@@H]1CN2C` [Example 660, 3-(6-((4bR,8aR)-4b,7,7-trimethyl-2-((3-methyl-4-((1R,4R)-5-methyl-2,5-diazabicyclo[2.2.1]heptan-2-yl)phenyl)amino)-4b,7,8,8a-tetrahydropyrano[3′,4′:4,5]pyrrolo[2,3-d]pyrimidin-9(5H)-yl)pyridin-2-yl)oxazolidin-2-one], the values for the IC50 (in assay [1]; on Wee1 kinase domain) were 100 to 1000 nM and under 10 nM, respectively.

For `CC1(C)C[C@H]2N(c3cccc(N4CCCC4=O)n3)c3nc(Nc4ccc(C5CNC5)cc4)ncc3[C@@]2(C)CO1` [Example 662, 1-(6-((4bR,8aR)-2-((4-(azetidin-3-yl)phenyl)amino)-4b,7,7-trimethyl-4b,7,8,8a-tetrahydropyrano[3′,4′:4,5]pyrrolo[2,3-d]pyrimidin-9(5H)-yl)pyridin-2-yl)pyrrolidin-2-one], the values for the half-maximal inhibitory concentration (IC50) (in assay [1]; against Wee1 kinase domain) were 100 to 1000 nM and under 10 nM, respectively.

For the compound `CC1(C)C[C@H]2N(c3cccc(N4CCOC4=O)n3)c3nc(Nc4ccc([C@]5(C)CCNC5)cc4)ncc3[C@@]2(C)CO1` [Example 664, 3-(6-((4bR,8aR)-4b,7,7-trimethyl-2-((4-((S)-3-methylpyrrolidin-3-yl)phenyl)amino)-4b,7,8,8a-tetrahydropyrano[3′,4′:4,5]pyrrolo[2,3-d]pyrimidin-9(5H)-yl)pyridin-2-yl)oxazolidin-2-one], the IC50 was 100 to 1000 nM in assay [1] and under 10 nM at Wee1 kinase domain.

On to `CC1(C)C[C@H]2N(c3cccc(N4CCOC4=O)n3)c3nc(Nc4ccc(C5CNC5)cc4)ncc3[C@@]2(C)CO1` [Example 666, 3-(6-((4bR,8aR)-2-((4-(azetidin-3-yl)phenyl)amino)-4b,7,7-trimethyl-4b,7,8,8a-tetrahydropyrano[3′,4′:4,5]pyrrolo[2,3-d]pyrimidin-9(5H)-yl)pyridin-2-yl)oxazolidin-2-one], for which the values for the IC50 (in assay [1]; at Wee1 kinase domain) were 100 to 1000 nM and under 10 nM, respectively.

As for `CN1C[C@H]2C[C@@H]1CN2c1ccc(Nc2ncc3c(n2)N(c2cccc(N4CCOC4=O)n2)[C@@H]2CC(C)(C)OC[C@]32C)cc1F` [Example 668, 3-(6-((4bR,8aR)-2-((3-fluoro-4-((1R,4R)-5-methyl-2,5-diazabicyclo[2.2.1]heptan-2-yl)phenyl)amino)-4b,7,7-trimethyl-4b,7,8,8a-tetrahydropyrano[3′,4′:4,5]pyrrolo[2,3-d]pyrimidin-9(5H)-yl)pyridin-2-yl)oxazolidin-2-one], the half-maximal inhibitory concentration (IC50) in assay [1] was 100 to 1000 nM; on Wee1 kinase domain it was under 10 nM.

In the case of `CN1CC[C@@](C)(c2ccc(Nc3ncc4c(n3)N(c3cccc(N5CCOC5=O)n3)[C@@H]3CC(C)(C)OC[C@]43C)cc2)C1` [Example 670, 3-(6-((4bR,8aR)-2-((4-((S)-1,3-dimethylpyrrolidin-3-yl)phenyl)amino)-4b,7,7-trimethyl-4b,7,8,8a-tetrahydropyrano[3′,4′:4,5]pyrrolo[2,3-d]pyrimidin-9(5H)-yl)pyridin-2-yl)oxazolidin-2-one], the values for the IC50 (in assay [1]; at Wee1 kinase domain) were 100 to 1000 nM and under 10 nM, respectively.

Regarding `CC1(C)C[C@H]2N(c3cccc(N4CCOC4=O)n3)c3nc(Nc4ccc([C@H]5CNC[C@H]5F)cc4)ncc3[C@@]2(C)CO1` [Example 672, 3-(6-((4bR,8aR)-2-((4-((3S,4S)-4-fluoropyrrolidin-3-yl)phenyl)amino)-4b,7,7-trimethyl-4b,7,8,8a-tetrahydropyrano[3′,4′:4,5]pyrrolo[2,3-d]pyrimidin-9(5H)-yl)pyridin-2-yl)oxazolidin-2-one], the half-maximal inhibitory concentration (IC50) in assay [1] was 100 to 1000 nM; against Wee1 kinase domain, under 10 nM.

`CC1(C)C[C@H]2N(c3cccc(N4CCOC4=O)n3)c3nc(Nc4ccc([C@@H]5CNC[C@@H]5F)cc4)ncc3[C@@]2(C)CO1` [Example 675, 3-(6-((4bR,8aR)-2-((4-((3R,4R)-4-fluoropyrrolidin-3-yl)phenyl)amino)-4b,7,7-trimethyl-4b,7,8,8a-tetrahydropyrano[3′,4′:4,5]pyrrolo[2,3-d]pyrimidin-9(5H)-yl)pyridin-2-yl)oxazolidin-2-one]: the results for the IC50 (in assay [1]; on Wee1 kinase domain) were 100 to 1000 nM and under 10 nM, respectively.

`CN1C[C@@H]2C[C@H]1CN2c1ccc(Nc2ncc3c(n2)N(c2cccc(N4CCOC4=O)n2)[C@@H]2CC(C)(C)OC[C@]32C)cc1F` [Example 676, 3-(6-((4bR,8aR)-2-((3-fluoro-4-((1S,4S)-5-methyl-2,5-diazabicyclo[2.2.1]heptan-2-yl)phenyl)amino)-4b,7,7-trimethyl-4b,7,8,8a-tetrahydropyrano[3′,4′:4,5]pyrrolo[2,3-d]pyrimidin-9(5H)-yl)pyridin-2-yl)oxazolidin-2-one]: the results for the 50% inhibitory concentration (IC50) (in assay [1]; against Wee1 kinase domain) were 100 to 1000 nM and under 10 nM, respectively.
